Laboratory results reported in ChEMBL document CHEMBL1201862, “PubChem BioAssay data set” (2004).
Activity calls are given as the source filed them.

Experiments:
[1] = molecular target: Steroidogenic factor 1 (Homo sapiens, UniProt Q13285); test: Counterscreen for inverse agonists of the liver receptor homolog-1 (LRH-1; NR5A2): Luminescence-based cell-based high throughput dose response assay to identify inverse agonists of the Steroidogenic Factor 1 Nuclear Receptor (SF1; NR5A1).; format: functional
[2] = molecular target: Nuclear receptor subfamily 5 group A member 2 (Homo sapiens, UniProt O00482); format: functional, cell-based;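 further: HEK293T cells transfected with LRH-1 and a StAR promoter luciferase reporter; potency for inhibitors that lower LRH-1 driven reporter light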
[3] = nonselective StAR promoter luciferase inhibitors – cell-based, luminescence, luciferase reporter, counter-screen for LRH-1 inverse agonist project, dose response (AID 651969); format: functional
[4] = molecular target: Photoreceptor-specific nuclear receptor (Homo sapiens, UniProt Q9Y5X4); format: functional, cell-based;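 further: CHO-S cells with Gal4-NCOR and VP16-NR2E3 two-hybrid luciferase reporter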
[5] = tested on: Streptococcus sp. 'group A'; test: Streptococcus pyogenes SK(-)GAS viability under kanamycin – luminescence, BacTiterGlo, confirmation, counter-screen for streptokinase expression inhibitor project, dose response (AID 1900); format: functional, organism-based
[6] = molecular target: Beta-galactosidase (Escherichia coli, UniProt Q8VNN2); test: detection-enzyme interference by beta-gal modulators – biochemical, E. coli enzyme, set 3, artefact control for CCR6 antagonist project, dose response (AID 504712); format: functional
[7] = tested on: Streptococcus; test: GAS UMAA2166 growth inhibition – luminescence, BacTiterGlo, counter-screen for streptokinase expression inhibitor project, dose response (AID 1915); format: functional, organism-based;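 further: potency for reduction of bacterial viability or growth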
[8] = molecular target: T1, Adenosylmethionine-8-amino-7-oxononanoate aminotransferase (Mycobacterium tuberculosis, UniProt P9WQ81); test: Mycobacterium tuberculosis BioA enzyme inhibitor Measured in Biochemical System Using Plate Reader - 2163-02_Inhibitor_Dose_CherryPick_Activity.; format: functional, Mycobacterium tuberculosis UT205
T1 sequence (P9WQ81 whole entry): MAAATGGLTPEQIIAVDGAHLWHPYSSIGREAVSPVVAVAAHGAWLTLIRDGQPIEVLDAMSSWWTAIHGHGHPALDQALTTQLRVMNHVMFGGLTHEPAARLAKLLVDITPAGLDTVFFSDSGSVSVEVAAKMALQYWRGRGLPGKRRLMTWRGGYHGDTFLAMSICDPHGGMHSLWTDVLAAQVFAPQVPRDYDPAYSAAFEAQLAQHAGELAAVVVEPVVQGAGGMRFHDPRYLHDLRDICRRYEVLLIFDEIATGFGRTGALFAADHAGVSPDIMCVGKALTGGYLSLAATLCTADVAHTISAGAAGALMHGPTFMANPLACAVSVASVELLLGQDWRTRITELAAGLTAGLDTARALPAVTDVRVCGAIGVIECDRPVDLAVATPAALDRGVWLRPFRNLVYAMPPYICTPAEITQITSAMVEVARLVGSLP

[9] = molecular target: T2, Small ubiquitin-related modifier 1 (Homo sapiens, UniProt P63165); test: SUMO1 protein interaction blockers, potency – biochemical, fluorescence polarization, uHTS hits, dose response (AID 624382); format: functional; settings: read-out: IC50_Mean
[10] = molecular target: T2, Small ubiquitin-related modifier 1; test: SUMO1 protein-protein binding blockers, potency – biochemical, FRET, dose response (AID 624383); format: functional; settings: read-out: IC50_Mean

Chain of Nuclear receptor subfamily 5 group A member 2 (O00482 whole entry): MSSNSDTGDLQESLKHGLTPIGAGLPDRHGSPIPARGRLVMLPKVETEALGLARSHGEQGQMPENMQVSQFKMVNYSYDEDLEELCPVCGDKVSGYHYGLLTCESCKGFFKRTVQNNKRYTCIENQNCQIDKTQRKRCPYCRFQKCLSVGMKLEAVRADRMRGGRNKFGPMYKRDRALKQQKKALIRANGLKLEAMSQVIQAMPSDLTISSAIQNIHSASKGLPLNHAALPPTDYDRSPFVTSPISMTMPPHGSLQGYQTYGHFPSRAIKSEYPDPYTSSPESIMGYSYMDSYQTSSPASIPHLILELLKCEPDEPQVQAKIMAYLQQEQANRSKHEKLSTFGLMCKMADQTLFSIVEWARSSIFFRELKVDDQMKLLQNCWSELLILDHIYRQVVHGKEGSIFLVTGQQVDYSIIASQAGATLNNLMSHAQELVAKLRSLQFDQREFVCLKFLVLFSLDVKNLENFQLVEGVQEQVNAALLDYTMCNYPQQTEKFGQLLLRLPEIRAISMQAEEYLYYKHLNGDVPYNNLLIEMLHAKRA
Chain of Steroidogenic factor 1 (Q13285 whole entry): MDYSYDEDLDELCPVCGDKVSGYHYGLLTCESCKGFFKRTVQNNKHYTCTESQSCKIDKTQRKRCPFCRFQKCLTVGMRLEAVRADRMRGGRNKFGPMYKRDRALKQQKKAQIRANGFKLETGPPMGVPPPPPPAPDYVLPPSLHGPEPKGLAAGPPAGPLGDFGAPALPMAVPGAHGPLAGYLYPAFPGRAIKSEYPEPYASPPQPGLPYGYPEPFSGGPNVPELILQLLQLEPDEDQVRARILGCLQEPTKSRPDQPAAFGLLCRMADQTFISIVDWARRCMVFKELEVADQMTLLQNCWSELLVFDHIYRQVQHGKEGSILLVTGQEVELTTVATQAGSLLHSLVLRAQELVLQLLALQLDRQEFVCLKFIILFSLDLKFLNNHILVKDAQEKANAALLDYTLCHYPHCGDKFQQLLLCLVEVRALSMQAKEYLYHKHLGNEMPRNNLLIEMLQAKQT
Chain of Photoreceptor-specific nuclear receptor (Q9Y5X4 whole entry, the tested form may be a part): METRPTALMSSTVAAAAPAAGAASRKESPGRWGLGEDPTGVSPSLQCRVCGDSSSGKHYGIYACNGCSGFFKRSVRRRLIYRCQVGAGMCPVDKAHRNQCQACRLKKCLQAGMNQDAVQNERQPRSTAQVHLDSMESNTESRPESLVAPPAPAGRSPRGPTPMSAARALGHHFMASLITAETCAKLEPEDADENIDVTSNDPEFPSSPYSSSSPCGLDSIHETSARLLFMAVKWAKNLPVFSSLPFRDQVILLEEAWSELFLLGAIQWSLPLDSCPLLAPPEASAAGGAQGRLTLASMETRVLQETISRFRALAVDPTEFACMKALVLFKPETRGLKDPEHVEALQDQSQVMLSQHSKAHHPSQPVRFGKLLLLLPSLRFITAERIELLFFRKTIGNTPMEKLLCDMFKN
T2 sequence (P63165 whole entry): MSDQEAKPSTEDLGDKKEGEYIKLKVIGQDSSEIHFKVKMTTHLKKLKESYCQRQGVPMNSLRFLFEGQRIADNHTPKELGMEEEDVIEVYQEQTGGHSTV
Chain of Beta-galactosidase (Q8VNN2 whole entry): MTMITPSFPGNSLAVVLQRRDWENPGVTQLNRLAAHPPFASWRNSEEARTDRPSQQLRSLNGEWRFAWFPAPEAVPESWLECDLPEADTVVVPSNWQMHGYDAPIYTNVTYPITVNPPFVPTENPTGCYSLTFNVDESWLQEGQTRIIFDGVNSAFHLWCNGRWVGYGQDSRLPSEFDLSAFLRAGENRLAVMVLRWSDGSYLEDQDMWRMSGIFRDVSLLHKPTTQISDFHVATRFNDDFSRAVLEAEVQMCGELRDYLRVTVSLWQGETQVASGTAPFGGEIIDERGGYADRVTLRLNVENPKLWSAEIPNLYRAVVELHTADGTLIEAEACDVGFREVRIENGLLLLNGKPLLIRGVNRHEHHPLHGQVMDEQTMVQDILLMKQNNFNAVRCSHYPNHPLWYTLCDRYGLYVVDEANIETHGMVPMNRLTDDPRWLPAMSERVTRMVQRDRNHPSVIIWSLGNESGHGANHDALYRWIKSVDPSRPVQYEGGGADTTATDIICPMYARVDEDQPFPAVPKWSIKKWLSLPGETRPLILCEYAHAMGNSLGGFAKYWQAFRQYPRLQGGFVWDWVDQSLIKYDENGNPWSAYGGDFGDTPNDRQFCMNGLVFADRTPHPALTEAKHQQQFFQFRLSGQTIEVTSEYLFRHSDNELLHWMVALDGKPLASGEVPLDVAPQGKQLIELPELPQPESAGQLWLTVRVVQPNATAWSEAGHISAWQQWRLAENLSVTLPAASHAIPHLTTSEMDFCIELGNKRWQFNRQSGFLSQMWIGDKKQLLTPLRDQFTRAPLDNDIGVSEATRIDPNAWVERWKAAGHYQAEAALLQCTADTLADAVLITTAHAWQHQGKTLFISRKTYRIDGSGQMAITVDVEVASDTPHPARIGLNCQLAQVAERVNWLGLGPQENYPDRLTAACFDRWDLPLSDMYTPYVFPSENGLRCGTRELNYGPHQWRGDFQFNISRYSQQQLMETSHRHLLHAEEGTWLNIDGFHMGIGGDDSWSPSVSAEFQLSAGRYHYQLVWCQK

Compound | IC50 [1] | IC50 [2] | IC50 [3] | also measured
COC(=O)c1ccc(CNC(=O)COC(=O)c2cc(Cl)nc(Cl)c2)cc1 | 12 µM (inactive) | 12 µM (inactive) | 35.9 µM (inactive) | –
Cc1cc(Br)ccc1NC(=O)CN1C(=O)CCC1=O | 0.877 µM (active) | 12 µM (inactive) | 35.9 µM (inactive) | –
Cc1ccc(Cc2cnc(N3C(=N)SC(C)C3=O)s2)cc1 (stereo not drawn) | – | – | – | IC50 [4]: 1.89 µM (active); EC50 [5]: 0.574 µM (active); IC50 [6]: > 66.6 µM (inactive); EC50 [7]: 3.44 µM (active)
CC1CN(C(=O)Nc2ccc3snnc3c2)c2ccccc21 (stereo not drawn) | – | – | – | AC50 [8]: 0.212 µM (active)
C=CCCC(=O)Nc1nc(C)c(-c2csc(Nc3cccc(OC)c3)n2)s1 | – | – | – | IC50 [9]: > 66.6 µM (inactive); IC50 [10]: 17.7 µM (active)
O=C(Nc1ccc(F)cc1)NC1CCN(Cc2nnnn2Cc2ccco2)CC1 | – | – | – | AC50 [8]: 3.58 µM (active)
CCOc1ccc(NC(=O)COC(=O)CC2CCCCC2)cc1 | 35.9 µM (inactive) | 35.9 µM (inactive) | 35.9 µM (inactive) | –
O=C(CN1C(=O)C(c2ccc(F)cc2)=NC12CCCC2)Nc1ccc(F)cc1 | – | – | – | IC50 [4]: 2.93 µM (active)
